Test results taken from PMC7695371, “Mimetics of extra virgin olive oil phenols with anti-cancer stem cell activity” (Aging (Albany NY), 2020).

How the values were obtained:
[1] = target: T1, DNMT3A (Homo sapiens, UniProt Q9Y6K1); test: HotSpot radioisotope filter-binding methyltransferase assay, 10-dose; type: biochemical
T1 construct: recombinant, Reaction Biology Corp. HotSpot assay

[2] = target: FRAP1 (mTOR) (Homo sapiens, UniProt P42345); test: FRET-based Z-LYTE kinase assay, […] concentrations; type: biochemical

T1 sequence (Q9Y6K1 whole entry, looked up): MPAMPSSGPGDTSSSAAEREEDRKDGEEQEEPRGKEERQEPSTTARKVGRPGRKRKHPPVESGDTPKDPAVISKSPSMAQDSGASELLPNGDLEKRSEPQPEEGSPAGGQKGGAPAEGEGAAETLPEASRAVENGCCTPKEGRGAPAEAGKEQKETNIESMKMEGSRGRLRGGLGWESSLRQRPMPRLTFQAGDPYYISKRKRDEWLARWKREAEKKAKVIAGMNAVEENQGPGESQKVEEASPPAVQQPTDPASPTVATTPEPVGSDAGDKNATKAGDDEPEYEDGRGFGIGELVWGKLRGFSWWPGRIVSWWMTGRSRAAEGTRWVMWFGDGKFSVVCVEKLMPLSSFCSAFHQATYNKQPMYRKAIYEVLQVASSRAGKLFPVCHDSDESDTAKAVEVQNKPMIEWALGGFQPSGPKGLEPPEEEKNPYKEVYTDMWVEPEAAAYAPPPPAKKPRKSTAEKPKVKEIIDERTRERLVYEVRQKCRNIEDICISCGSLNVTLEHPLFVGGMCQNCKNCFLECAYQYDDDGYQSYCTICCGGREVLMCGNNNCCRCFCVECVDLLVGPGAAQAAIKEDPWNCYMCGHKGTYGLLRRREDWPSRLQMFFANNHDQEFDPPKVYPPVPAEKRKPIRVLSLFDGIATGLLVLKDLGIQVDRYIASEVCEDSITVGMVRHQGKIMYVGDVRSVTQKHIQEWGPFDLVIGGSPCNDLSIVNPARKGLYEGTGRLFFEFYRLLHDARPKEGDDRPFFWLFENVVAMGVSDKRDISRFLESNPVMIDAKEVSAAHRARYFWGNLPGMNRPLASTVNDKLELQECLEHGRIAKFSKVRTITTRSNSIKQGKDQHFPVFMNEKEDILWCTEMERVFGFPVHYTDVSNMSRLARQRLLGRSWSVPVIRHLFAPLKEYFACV

- IC50 [1]: > 150 µM
- IC50 [2]: ~39 µM
SMILES: CCCC(=O)OCCc1ccc(O)c(O)c1 [CHEMBL1950046, 3,4-Dihydroxyphenethyl butyrate]
